Laboratory results reported in ChEMBL document CHEMBL5226279, “Mercaptoacetamide: A promising zinc-binding group for the discovery of selective histone deacetylase 6 inhibitors” (Eur J Med Chem, 2021).

Columns and labels:
[1] = biological target: T1, Protein deacetylase HDAC6 (Homo sapiens, UniProt Q9UBN7); experiment: Inhibition of human full length recombinant HDAC6 expressed in baculovirus infected Sf9 cells using RHKKAc as substrate preincubated for 5 to 10 mins followed by substrate addition and measured after 2 hrs by fluorescence based analysis
T1 sequence (Q9UBN7 whole entry): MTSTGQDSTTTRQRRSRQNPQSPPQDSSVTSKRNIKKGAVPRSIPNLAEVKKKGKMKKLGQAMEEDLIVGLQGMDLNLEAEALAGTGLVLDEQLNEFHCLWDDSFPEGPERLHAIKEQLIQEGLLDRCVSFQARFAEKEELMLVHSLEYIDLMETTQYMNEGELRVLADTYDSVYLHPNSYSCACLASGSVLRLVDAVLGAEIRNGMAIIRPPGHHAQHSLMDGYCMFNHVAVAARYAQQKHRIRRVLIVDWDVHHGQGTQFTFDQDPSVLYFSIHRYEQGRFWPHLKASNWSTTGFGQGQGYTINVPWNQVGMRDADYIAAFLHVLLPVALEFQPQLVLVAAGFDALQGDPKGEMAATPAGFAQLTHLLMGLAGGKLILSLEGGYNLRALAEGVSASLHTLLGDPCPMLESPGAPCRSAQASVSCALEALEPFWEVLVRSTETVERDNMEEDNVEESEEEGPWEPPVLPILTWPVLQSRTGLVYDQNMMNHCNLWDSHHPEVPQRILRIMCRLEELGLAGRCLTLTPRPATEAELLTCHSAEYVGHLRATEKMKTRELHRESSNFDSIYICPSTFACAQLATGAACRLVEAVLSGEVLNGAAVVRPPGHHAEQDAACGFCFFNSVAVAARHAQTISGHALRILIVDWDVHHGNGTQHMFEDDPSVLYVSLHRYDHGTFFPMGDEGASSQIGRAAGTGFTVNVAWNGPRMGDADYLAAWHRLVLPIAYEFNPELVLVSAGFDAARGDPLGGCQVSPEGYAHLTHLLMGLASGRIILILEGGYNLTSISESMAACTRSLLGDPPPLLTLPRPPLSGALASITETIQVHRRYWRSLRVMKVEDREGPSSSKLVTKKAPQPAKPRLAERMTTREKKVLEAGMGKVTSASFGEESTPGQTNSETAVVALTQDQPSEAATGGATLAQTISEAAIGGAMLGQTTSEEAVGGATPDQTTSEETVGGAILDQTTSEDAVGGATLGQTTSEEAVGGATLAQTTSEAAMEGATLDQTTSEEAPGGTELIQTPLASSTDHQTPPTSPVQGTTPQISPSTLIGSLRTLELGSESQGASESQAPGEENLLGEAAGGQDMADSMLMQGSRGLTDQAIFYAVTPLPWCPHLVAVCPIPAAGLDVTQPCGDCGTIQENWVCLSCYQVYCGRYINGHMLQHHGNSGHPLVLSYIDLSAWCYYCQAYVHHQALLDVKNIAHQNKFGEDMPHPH

[2] = biological target: Histone deacetylase 1 (Homo sapiens, UniProt Q13547); experiment: Inhibition of human full length recombinant HDAC1 expressed in baculovirus infected Sf9 cells using RHKKAc as substrate preincubated for 5 to 10 mins followed by substrate addition and measured after 2 hrs by fluorescence based analysis
[3] = biological target: Histone deacetylase 2 (Homo sapiens, UniProt Q92769); experiment: Inhibition of human full length recombinant HDAC2 expressed in baculovirus infected Sf9 cells using RHKKAc as substrate preincubated for 5 to 10 mins followed by substrate addition and measured after 2 hrs by fluorescence based analysis
Sequence of Histone deacetylase 2 (Q92769 whole entry): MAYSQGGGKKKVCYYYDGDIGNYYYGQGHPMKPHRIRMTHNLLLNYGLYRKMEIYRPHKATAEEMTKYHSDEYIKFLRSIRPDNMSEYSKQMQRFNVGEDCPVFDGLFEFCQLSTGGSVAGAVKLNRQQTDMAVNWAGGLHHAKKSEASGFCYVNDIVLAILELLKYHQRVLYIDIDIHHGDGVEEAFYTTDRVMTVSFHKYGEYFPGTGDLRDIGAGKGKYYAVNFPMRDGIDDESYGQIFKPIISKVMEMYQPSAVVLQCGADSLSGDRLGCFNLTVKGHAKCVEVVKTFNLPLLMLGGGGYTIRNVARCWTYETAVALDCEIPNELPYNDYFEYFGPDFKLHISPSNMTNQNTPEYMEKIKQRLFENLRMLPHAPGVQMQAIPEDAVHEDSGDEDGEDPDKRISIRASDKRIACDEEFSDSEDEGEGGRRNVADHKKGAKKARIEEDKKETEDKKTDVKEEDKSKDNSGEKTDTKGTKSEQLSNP

Sequence of Histone deacetylase 1 (Q13547 whole entry): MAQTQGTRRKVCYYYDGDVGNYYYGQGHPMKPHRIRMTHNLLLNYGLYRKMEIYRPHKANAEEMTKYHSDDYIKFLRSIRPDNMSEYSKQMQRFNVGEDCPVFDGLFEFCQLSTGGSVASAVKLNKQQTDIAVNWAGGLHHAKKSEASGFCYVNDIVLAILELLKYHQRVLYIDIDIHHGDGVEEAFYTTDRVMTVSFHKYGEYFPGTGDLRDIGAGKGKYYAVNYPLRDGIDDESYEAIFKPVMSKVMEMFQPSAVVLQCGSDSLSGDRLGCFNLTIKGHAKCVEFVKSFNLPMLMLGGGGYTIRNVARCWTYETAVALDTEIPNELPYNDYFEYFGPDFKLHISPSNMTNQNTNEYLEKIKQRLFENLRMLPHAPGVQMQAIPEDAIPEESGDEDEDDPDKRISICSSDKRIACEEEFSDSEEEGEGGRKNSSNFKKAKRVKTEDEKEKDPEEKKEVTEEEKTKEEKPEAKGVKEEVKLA

Molecule `Cc1onc(-c2ccccc2)c1/C=C/CCCCCNC(=O)CS` has an IC50 [1] of 3.5 µM and an IC50 [2] of 28 µM.
Work on `Cc1onc(-c2ccccc2)c1C(=O)NCCCCCNC(=O)C(C)(C)S` yielded an IC50 [3] of over 30 µM, an IC50 [1] of over 30 µM and an IC50 [2] of over 30 µM.
`Cc1onc(-c2ccccc2)c1/C=C\CCCCCNC(=O)CS` showed an IC50 [1] of 4.8 µM and an IC50 [2] of over 30 µM.
`Cc1onc(-c2ccccc2)c1C(=O)NCCCCCNC(=O)[C@H](C)S` gave an IC50 [3] of over 30 µM, an IC50 [1] of over 30 µM and an IC50 [2] of over 30 µM.
In the case of `Cc1noc(-c2ccccc2)c1C#CCCCCNC(=O)C(C)(C)S`, the IC50 [3] is reported as over 30 µM, the IC50 [1] is reported as over 30 µM and the IC50 [2] is reported as over 30 µM.
`Cc1onc(-c2ccccc2)c1/C=C/c1ccc(CNC(=O)C(C)(C)S)cc1` showed an IC50 [3] of over 30 µM, an IC50 [1] of over 30 µM and an IC50 [2] of over 30 µM.
`Cc1onc(-c2ccccc2)c1COCCCCCNC(=O)[C@@H](C)S` gave an IC50 [1] of 0.83 µM and an IC50 [2] of 1.5 µM.
For `Cc1onc(-c2ccccc2)c1COCCCCCNC(=O)[C@H](C)S`, the IC50 [1] was over 30 µM and the IC50 [2] was over 30 µM.
`Cc1noc(-c2ccccc2)c1C#CCCCCCNC(=O)C(C)(C)S` was tested, and the IC50 [3] was over 30 µM, the IC50 [1] was over 30 µM and the IC50 [2] was over 30 µM.
For `Cc1onc(-c2ccccc2)c1C=CCCCCCNC(=O)C(C)(C)S` (mixture of isomers), the IC50 [3] was over 30 µM, the IC50 [1] was over 30 µM and the IC50 [2] was over 30 µM.
For `Cc1onc(-c2ccccc2)c1C=CCCCCCNC(=O)C(C)S` (mixture of isomers), the IC50 [3] was over 30 µM, the IC50 [1] was 9.8 µM and the IC50 [2] was over 30 µM.
`Cc1onc(-c2ccccc2)c1C=CCCCCCNC(=O)CS` (mixture of isomers) gave an IC50 [3] of over 30 µM, an IC50 [1] of 2.7 µM and an IC50 [2] of over 30 µM.
With `Cc1noc(-c2cccc(F)c2)c1C#CCCCCCNC(=O)C(C)S` (racemic) the IC50 [3] was 9.4 µM, the IC50 [1] was 2.6 µM and the IC50 [2] was 3.7 µM.
For `Cc1onc(-c2ccccc2)c1C(=O)NCCCCCNC(=O)C(C)S` (racemic), the IC50 [3] was over 30 µM, the IC50 [1] was 1.1 µM and the IC50 [2] was over 30 µM.
`Cc1onc(-c2ccccc2)c1/C=C/c1ccc(CNC(=O)C(C)S)cc1` (racemic) was tested, and the IC50 [3] was over 30 µM, the IC50 [1] was over 30 µM and the IC50 [2] was over 30 µM.
With `Cc1noc(-c2ccccc2)c1C#CCCCCCNC(=O)C(C)S` (racemic) the IC50 [3] was 7.5 µM, the IC50 [1] was 2 µM and the IC50 [2] was 2.7 µM.
`Cc1onc(-c2ccccc2)c1COCCCCCNC(=O)C(C)S` (racemic) was tested, and the IC50 [3] was 14 µM, the IC50 [1] was 0.85 µM and the IC50 [2] was 9.6 µM.
